Experimental data published in publication PMC9481570, “A small molecule antagonist of SMN disrupts the interaction between SMN and RNAP II” (Nature Communications, 2022).

What was measured:
[1] = Solubility of the hit compound; format: physicochemical
Experimental: Screen Format 384-well black plates (Greiner, 784290)
Concentration(s) tested 2 mM compound with 2% DMSO (final concentration), 40 nM FITC-labeled H3K9me3 peptide, 8 μM tandem
Tudor domain of UHRF1 protein
Plate controls Background: FITC-labeled peptide only; negative control: FITC-labeled peptide and protein; positive control: FITC-labeled peptide and protein plus unlabeled H3K9me3 peptide
Reagent/ compound dispensing system Agilent Bravo robot
Detection instrument and software Synergy 4 microplate reader (BioTek), GraphPad […]
Assay validation/QC Z’ factor = 0.8
Correction factors Background value
Normalization All the digital values of fluorescence polarization signal subtract the background signal value.
Additional comments High concentrations (>2.5%) of DMSO might affect peptide binding and signal-to-noise ratios
Post-HTS analysis Hit criteria The signal of negative control was set as 100%. When the signal of sample was less than 50% of negative control, it was taken as hit.
Additional assay(s) The hits were further confirmed by dose response analysis with 1 mM as the highest concentration of the hits and 11 serial dilutions by 2 times, and then by isothermal titration calorimetry assay.
Confirmation of hit purity and structure The compound was repurchased (Specs, ID: AG- […]

GEMIN6 = experiment: AP-MS chemical proteomics, GEMIN6; format: binding, human
Experimental: The samples for AP-MS were prepared following pulldown procedure as previously described with minor modifications. Briefly, U2OS cells were lysed in RIPA buffer and the cell lysate was equally divided into two groups: (1) DMSO group (control group): the cell lysate was incubated with 20 μM biotin-labeled compound 1; (2) Cpmd 1 group (sample group): the cell lysate was incubated with 20 μM biotin-labeled compound 1 and 200 μM free compound 1. Each group contains three biological replicates. They were incubated overnight at 4 °C, then 30 μL streptavidin beads (Thermo Fisher, 20353) was added and incubated at 4 °C for 1 h. The beads were then washed with RIPA buffer for 3 times, 10 min/time. […]
Samples were analyzed by nanoLC-MS/MS (nanoRSLC, Thermo Fisher) using an Aurora series (Ion Opticks) reversed phase HPLC column (25 cm length × 75 µm inner diameter) and directly injected to an Orbitrap Eclipse (Thermo Fisher) using a 120 min gradient (mobile phase A = 0.1% formic acid, mobile phase B = 99.9% acetonitrile with 0.1% formic acid; hold 2% B for 5 min, 2–6% B in 0.1 min, 6–25% in 100 min, 25–50% in 15 min) at a flow rate of 350 nL/min. Eluted peptide ions were analyzed using a data-dependent acquisition (DDA) method with resolution settings of 120,000 and 15,000 (at m/z 200) for MS1 and MS2 scans, respectively. […]

In the case of `Cn1c2c(c(=N)c3c1CCC3)CCC2` [Compound 1, 4-methyl-2,3,4,5,6,7-hexahydrodicyclopenta[b,e]pyridin-8(1H)-imine], the “concentration dissolved in DMSO” value ([1]; DMSO) is reported as 100000 µM, the “solubility in buffer at high concentration” value ([1]; buffer) is reported as “but not in buffer” and the Difference (GEMIN6; GN=GEMIN6 (Q8WXD5), Cmpd minus DMSO, -LOG(P-value) 2.19893) is reported as -5.406. The “log2 FC (Cmpd 1/DMSO), GEMIN6” value (GEMIN6; biotin-Cmpd 1 pulldown, competition with 200 μM compound 1 relative to DMSO, U2OS lysate) was −5.4.
